Reference: BindingDB's records for doi:10.7270/Q2W094D4 (Burnham Center For Chemical Genomics, 2011)

Each compound was assayed against Hexokinase HKDC1 [W721R] (Homo sapiens, UniProt Q2TB90, W721R) (assay: inhibition of HKDC1 glucose phosphorylation – biochemical, W721R variant, dose response (AID 504729)).
Hexokinase HKDC1 [W721R], sequence (Q2TB90 whole entry W721R): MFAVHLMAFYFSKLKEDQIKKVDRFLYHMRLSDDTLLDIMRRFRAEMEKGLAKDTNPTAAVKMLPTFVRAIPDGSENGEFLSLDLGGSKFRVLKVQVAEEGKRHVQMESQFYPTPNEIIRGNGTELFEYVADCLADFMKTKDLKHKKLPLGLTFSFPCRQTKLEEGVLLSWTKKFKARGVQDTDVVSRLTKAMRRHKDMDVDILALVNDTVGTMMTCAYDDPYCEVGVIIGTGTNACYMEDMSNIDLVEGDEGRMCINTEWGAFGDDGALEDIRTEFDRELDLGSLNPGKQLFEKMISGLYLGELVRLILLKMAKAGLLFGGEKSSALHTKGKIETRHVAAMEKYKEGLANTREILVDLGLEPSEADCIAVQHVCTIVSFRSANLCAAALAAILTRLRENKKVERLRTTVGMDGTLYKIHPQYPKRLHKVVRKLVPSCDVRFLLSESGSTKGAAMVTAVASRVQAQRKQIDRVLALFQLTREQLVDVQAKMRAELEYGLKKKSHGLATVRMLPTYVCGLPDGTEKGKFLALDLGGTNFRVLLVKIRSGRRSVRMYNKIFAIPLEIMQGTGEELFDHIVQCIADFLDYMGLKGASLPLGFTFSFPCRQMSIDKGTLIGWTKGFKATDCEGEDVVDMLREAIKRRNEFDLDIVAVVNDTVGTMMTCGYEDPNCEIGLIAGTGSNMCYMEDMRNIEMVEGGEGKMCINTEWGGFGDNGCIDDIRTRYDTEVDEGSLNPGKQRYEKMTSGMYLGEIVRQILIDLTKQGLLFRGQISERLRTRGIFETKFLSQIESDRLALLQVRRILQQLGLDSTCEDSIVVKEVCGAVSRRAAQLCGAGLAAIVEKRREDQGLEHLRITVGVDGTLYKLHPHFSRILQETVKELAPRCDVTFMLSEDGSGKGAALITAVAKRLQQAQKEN
In the case of Cc1ccc(/N=C/C2=CC(Cc3ccccc3Cl)C=C([N+](=O)[O-])C2=O)c(O)c1 (stereo not drawn), the IC50 is reported as 28.5 µM. Work on Oc1ccc(CN=Nc2ncc(Br)cn2)c(O)c1 yielded an IC50 of 1.68 µM. COc1ccc(Cn2c(O)c3[nH]cccc-3c2=O)cc1 showed an IC50 of 21.5 µM. Compound CC(Nc1cc(O)c2cccnc2c1O)C(=O)c1ccccc1 (stereo not drawn) has an IC50 of 18.5 µM. In the case of COC1=CC(/C=C(\C#N)c2nc3ccc(C)cc3[nH]2)C=C([N+](=O)[O-])C1=O (stereo not drawn) [(2Z,3E)-3-(3-methoxy-5-nitro-4-oxocyclohexa-2,5-dien-1-ylidene)-2-(5-methyl-1,3-dihydrobenzimidazol-2-ylidene)propanenitrile], the IC50 is reported as 16.1 µM. Compound O=C(/C=C/c1ccco1)NCC(=O)NNC1=c2ccccc2=NC1=O [MLS001075666] has an IC50 of 25.3 µM. N#CC(C(=O)CCl)c1nc2c(s1)CCc1ccccc1-2 (stereo not drawn) [MLS001171530] gave an IC50 of 17.4 µM. For Oc1c(Cl)c(N=CCc2ccccc2)c(O)c2ccccc12 [MLS002608293], the IC50 was 7.92 µM. For Cc1[nH]c2c(=O)c3c(c(=O)c=2[nH]c1C)C1C=CC3CC1 [MLS002701599], the IC50 was 2.23 µM. For Cc1ccc(Nc2c3[nH]cccc-3c(=O)n2-c2ccccc2C)cc1C [SMR000028201], the IC50 was 11.6 µM. For Cc1cccc2c1=NC(=O)C=2NNC(=O)c1ccc(NS(=O)(=O)c2cccs2)cc1 [SMR001246714], the IC50 was 15.5 µM. O=C1C=CC(CN=Nc2ccc([N+](=O)[O-])cn2)C(O)=C1 (stereo not drawn) [SMR001527138] gave an IC50 of 6.23 µM. Compound C=c1c(NC(C)=O)c(O)c2nc3n(c2c1O)CCC=3OC(=O)COC [SMR001565176] has an IC50 of 2.18 µM.
